{"source": "paper PMC12162873", "about": "“Modulating phosphatase DUSP22 with BML-260 ameliorates skeletal muscle wasting via Akt independent JNK-FOXO3a repression” (EMBO Molecular Medicine, 2025)", "key": {"[1]": {"test_system": "24-26-month-old male C57BL/6 mice", "assay": "Skeletal muscle aging model, BML-260 treatment", "format": "in vivo, mouse", "set-up": "Area / Feret / Feret, Average / Area, Average: unit not given here", "details": "for Area / Feret: listed as BML", "description": "To assess DUSP22 pharmacological targeting, BML-260 was treated to 24–26-month-old male C57BL/6 mice as follows: (1) vehicle alone (5% DMSO + 5% tween 80) and (2) 5 mg/kg BML-260 (n = 5 per group). Mice were treated via IP delivery every 24 h for 4 weeks and then assessed for skeletal muscle function and condition.\nGrip strength was measured using the BIO-GS3 device (Bioseb, FL, USA). Mice were placed onto the grid with all four paws attached and gently pulled backwards to measure the grip strength until the grid was released. The maximum grip value, used to represent muscle force, was calculated using 3 trials with an interval of 30 s.\nMuscle fatigue was measured the previously described protocol (Chiu et al, [2018]), with two different models using the Rotarod. One was the constant model and the other was the accelerating model that is inherent in the rotarod device. In brief, the mice were accommodated to training before the commencement of the fatigue task using an accelerating rotarod (Ugo Basile, Italy). The mice were trained at a constant speed of 13 rpm for 15 min. After a recovery period of 15 min, the mice were placed on the rotarod adjusted to accelerate from 13 to 25 rpm in 3 min for 15 min. 24 h later, the muscle fatigue test was carried out with speeds ramping from 13 to 25 rpm in 3 min, and maintained at 25 rpm for a 30 min interval. Latency to fall off the rotarod was measured for each mouse. A fatigued mouse was classified as falling off 4 times within a 1 min period, which also terminated the test.\n(§1) Mice were anesthetized using ketamine (22 mg/kg; Yuhan, Republic of Korea) and xylazine (10 mg/kg; Bayer, Republic of Korea) in saline by IP injection. The quadriceps, gastrocnemius, soleus and TA muscles were then dissected and weighed. For histological analysis, the muscles were fixed by overnight incubation with 4% paraformaldehyde in PBS pH 7.4 at 4 °C. Paraffin sectioning and H&E staining were provided by the Animal Housing Facility, Gwangju Institute of Science and Technology, Republic of Korea (5 µm muscle sections using a Thermo Scientific HistoStar (Thermofisher). H&E staining was carried out with a kit (Merck, Germany)). For immunohistochemistry, TA muscle sections were permeabilized for 15 min (PBS with 0.5% Triton X-100), blocked for 1 h (5% BSA) and incubated with the primary antibody overnight at 4 °C (a list of primary and secondary antibodies used in this study are provided in Appendix Tables S4 and S5, respectively). After washing with PBS 3 times for 5 min, the sections were incubated with the secondary antibody at RT for 1 h. The nuclei were counterstained with DAPI in ProLong™ Gold Antifade Mountant (Invitrogen, P36935). Digital images were acquired with Leica DM 2500 (Leica Microsystems). Cross sectional area (CSA) and fiber size distribution was measured using the NIH imaging software Image J 64. To CSA and size distribution of different fiber types was calculated in 4 muscle section as follows: type 2 A: 30–40 fibers measured; type 2B: at least 100 fibers measured; type 2X: 30–40 fibers measured."}, "C57BL/6 mice": {"test_system": "C57BL/6 mice", "assay": "Hind limb immobilization model, BML-260 treatment", "format": "in vivo, mouse", "description": "Western blotting was carried out using the previously published protocol (Lee et al, [2020]). The NIH imaging software Image J 64 was used for densitometry analysis of the gel bands. The primary and secondary antibodies used in this study are shown in the reagent and tools table. Chemiluminescence was used to detect the secondary antibody.\nTo immobilize the hind limbs, 14-week-old male C57BL/6 mice were anesthetized with isoflurane and both hind limbs were fixed with plastic EP-tubes (Axygen, MCT-175-C). To prevent the tubes from slipping, the junction between the tubes and the hind limbs were wrapped with insulating tape. BML-260 was treated as follows: (1) vehicle alone (5% DMSO + 5% tween 80) and (2) 5 mg/kg BML-260 (n = 3 per group). The mice were monitored daily and sacrificed after 14 days.\nas §1"}, "[2]": {"test_system": "15-month-old C57BL/6J male mice", "assay": "Assessment of potential organ toxicity (liver, heart, kidney)", "format": "in vivo, mouse", "set-up": "Kidney mass / Liver mass / heart mass / Kidney mass, Average / Liver mass, Average / heart mass, Average: unit not given here", "details": "5 mg/kg IP every 24 h for 6 weeks", "description": "To assess the effect of BML-260 treatment on the liver, heart and kidney, 15-month-old C57BL/6J male mice were treated as follows: 1) Vehicle (DMSO in PBS pH 7.4 with 5% Tween 80) alone, 2) 5 mg/kg BML-260 (n = 4 per group). BML-260 was administered via IP delivery every 24 h for 6 weeks. The mice were then sacrificed and the liver, kidneys and heart were weighed and photographed.\nA) Photographs of the kidneys, liver, and heart after 6 weeks treatment with 5 mg/kg in 15 month-old mice. (n=4) B) Kidney(p=0.4403), liver(0.5545), and heart(0.5349) mass. ns=not statistically significant. n represents biological replicates analyzed by Student’s t test. Error bars represent the standard error of the mean (SEM).\n(1 picture or pasted object on this page, not shown here)"}, "DUSP22": {"test_system": "DUSP22", "set-up": "method as in Cutshall et al, 2005", "details": "ref Cutshall et al, 2005, cited from earlier work"}, "[3]": {"details": "5 mg/kg IP every 24 h for 4 weeks"}, "[4]": {"details": "S10.B, group average of 3 animals"}, "[5]": {"details": "S10.B, individual measurements, animal BML 1"}, "[6]": {"details": "S10.B, mean per animal (BML 1, BML4, BML5)"}, "[7]": {"details": "5 mg/kg BML-260, 14 days immobilization"}, "[8]": {"details": "TA of immobilized mice (Fig EV4), Sham average = 1"}, "[9]": {"details": "TA of immobilized mice (Fig EV4), Sham average = 1, individual animals"}}, "note": "Where “and” joins values, the source holds several entries; their conditions need not be identical. Equal values may be shown once. Entries after “also recorded” stand apart in the source; their conditions may differ.", "data": [{"smiles": "O=C(O)c1ccc(N2C(=O)C(=Cc3ccccc3)SC2=S)cc1", "note": "(stereo in doubt) [BML-260]", "values": [{"measurement": "CSA and Feret's diameter of type 2A, 2B and 2X myofibers, TA and gastrocnemius", "setting": "[1]; [3]", "value": "increased"}, {"measurement": "DUSP22 levels in the TA muscle, western blot", "setting": "[1]; [3]", "value": "reduced DUSP22 levels"}, {"measurement": "body weight", "setting": "[1]; [3]", "value": "not significantly affected"}, {"measurement": "expression of PGC-1α, qPCR", "setting": "[1]; [3]", "value": "increased"}, {"measurement": "expression of atrogin-1 and MuRF-1 in the TA muscle, qPCR", "setting": "[1]; [3]", "value": "reduced"}, {"measurement": "expression of myostatin, qPCR", "setting": "[1]; [3]", "value": "reduced"}, {"measurement": "grip strength mean value", "setting": "[1]; [3]", "value": "increased by BML-260 treatment but did not reach statistical significance"}, {"measurement": "latency to fall in the rotarod test", "setting": "[1]; [3]", "value": "statistically increased"}, {"measurement": "mass of quadriceps, gastrocnemius, TA and soleus muscles", "setting": "[1]; [3]", "value": "increased the mean mass value of the quadriceps, gastrocnemius, TA and soleus muscles, and reached statistical significance for the TA and gastrocnemius muscles"}, {"measurement": "proportion of slow type 1 myofibers", "setting": "[1]; [3]", "value": "did not significantly affect"}, {"measurement": "Area, Average", "setting": "[1]; [4]", "value": 2003.72}, {"measurement": "Feret, Average", "setting": "[1]; [4]", "value": 60.0894}, {"measurement": "Area", "setting": "[1]; [5]", "value": "2289.78 and 2476.44 and 2826.67 and 1960.89 and 2172.44 and 1594.67 and 2152.89 and 2090.67 and 1617.78 and 2085.33 and 2567.11"}, {"measurement": "Feret", "setting": "[1]; [5]", "value": "75.248 and 68.56 and 66.573 and 63.175 and 60.296 and 56.506 and 57.366 and 56.056 and 52.173 and 66.306 and 72.271"}, {"measurement": "Area", "setting": "[1]; [6]", "value": "2166.79 and 2165.89 and 1678.47"}, {"measurement": "Feret", "setting": "[1]; [6]", "value": "63.1391 and 63.015 and 54.114"}, {"measurement": "DUSP22 expression, western blot quantification, Average", "setting": "[1]; TA of aged mice (Fig EV4A), Young average = 1", "value": 0.2806}, {"measurement": "DUSP22 expression, western blot quantification", "setting": "[1]; TA of aged mice (Fig EV4A), Young average = 1, individual animals", "value": "0.2303 and 0.3985 and 0.213"}, {"measurement": "increase of grip strength", "setting": "[1]; aged skeletal muscle", "value": "> 20", "unit": "%"}, {"measurement": "DUSP22 levels in TA and gastrocnemius muscles, western blot", "setting": "C57BL/6 mice; [7]", "value": "reduced DUSP22 levels"}, {"measurement": "MYH4 (myosin heavy chain 2B) in TA muscle, western blot", "setting": "C57BL/6 mice; [7]", "value": "upregulation"}, {"measurement": "atrogin-1 and MuRF-1 expression in immobilized TA, western blot", "setting": "C57BL/6 mice; [7]", "value": "downregulated"}, {"measurement": "phosphorylation level of JNK in TA muscle, western blot", "setting": "C57BL/6 mice; [7]", "value": "reduction"}, {"measurement": "DUSP22, western blot quantification, Average", "setting": "C57BL/6 mice; SHAM average = 1", "value": 0.5293}, {"measurement": "DUSP22, western blot quantification", "setting": "C57BL/6 mice; SHAM average = 1, individual animals", "value": "0.9793 and 0.6244 and 0.3303 and 0.3563 and 0.317 and 0.5687"}, {"measurement": "DUSP22, western blot quantification, Average", "setting": "C57BL/6 mice; TA muscle of immobilized mice (Fig EV5), Sham average = 1", "value": 1.168}, {"measurement": "DUSP22, western blot quantification", "setting": "C57BL/6 mice; TA muscle of immobilized mice (Fig EV5), Sham average = 1, individual animals", "value": "1.324 and 0.9536 and 0.9932 and 1.399"}, {"measurement": "p-jnk/jnk, western blot quantification, Average", "setting": "C57BL/6 mice; TA muscle of immobilized mice, Sham average = 1", "value": 0.4787}, {"measurement": "p-jnk/jnk, western blot quantification", "setting": "C57BL/6 mice; TA muscle of immobilized mice, Sham average = 1, individual animals", "value": "0.7134 and 0.5569 and 0.2233 and 0.4213"}, {"measurement": "DUSP22, western blot quantification, Average", "setting": "C57BL/6 mice; [8]", "value": 1.587}, {"measurement": "MYH4, western blot quantification, Average", "setting": "C57BL/6 mice; [8]", "value": 0.928}, {"measurement": "DUSP22, western blot quantification", "setting": "C57BL/6 mice; [9]", "value": "1.411 and 2.335 and 2.043 and 0.8602 and 1.621 and 1.251"}, {"measurement": "MYH4, western blot quantification", "setting": "C57BL/6 mice; [9]", "value": "1.0151 and 0.5864 and 0.9197 and 0.796 and 1.189 and 1.062"}, {"measurement": "kidney, liver and heart appearance and mass", "setting": "[2]", "value": "no major difference compared to vehicle-treated mice; also recorded: no gross significant change"}, {"measurement": "Kidney mass", "setting": "[2]; individual animals", "value": "4.5487 and 5.186 and 4.22 and 4.517"}, {"measurement": "Liver mass", "setting": "[2]; individual animals", "value": "49.3264 and 63.6644 and 45.6088 and 64.8958"}, {"measurement": "heart mass", "setting": "[2]; individual animals", "value": "3.6875 and 4.058 and 4.981 and 4.532"}, {"measurement": "Kidney mass, Average", "setting": "[2]; n = 4", "value": 4.6181}, {"measurement": "Liver mass, Average", "setting": "[2]; n = 4", "value": 55.8738}, {"measurement": "heart mass, Average", "setting": "[2]; n = 4", "value": 4.315}, {"measurement": "IC50", "setting": "DUSP22; EGF-R peptide P32-based assay", "value": 18, "unit": "µM"}, {"measurement": "IC50 for DUSP22 (in words)", "setting": "DUSP22", "value": "low micromolar range"}, {"measurement": "mode of DUSP22 inhibition", "setting": "DUSP22", "value": "competitive inhibitor"}]}]}
